Results from patent US8557737B2, “Methods of altering poppy characteristics” (priority 2005, dated 2013).

Experiments:
Type in all cases: in vivo, Papaver somniferum
[1] = system: poppy crops; assay: Example 16: field trial, metsulfuron-methyl, mesosulfuron-methyl and triasulfuron at row cover and ground cover/early run-up, morphine crop; details: Trt 2: COMPOUND 1 120 MG/HA + PULSE .2% V/V at RC and GC/ERU
Protocol: (§1) All trials were conducted on poppy crops. Seed was treated with Thiram (5.6 g of Thiram 800/kg seed) and Apron (4 g/kg) and sown at a rate of approximately 750 g/ha. Fertilisers were applied at sowing. Most commonly, either 50:50 lime:superphosphate/triple superphosphate at 125 kg/ha, or lime:superphosphate at 250 kg/ha, were mixed with seed and drilled at a depth of 15 mm. In the same operation, NPK (nitrogen:phosphorus:potassium), at various rates, was banded 75 mm below the seed, unless otherwise stated. All crops were subjected to herbicide sprays for weed control, fungicide sprays for disease control, insecticide sprays if appropriate and were irrigated as required.
(§2) All spray applications were made with a precision sprayer, using Silvan Lurmark flat-fan, low-drift nozzles (LD110-0015). Spray equipment was calibrated to deliver 153 L water/ha.
(§3) At harvest, a 2 m×4 m quadrat was placed in each plot (3 m×6 m, unless otherwise stated) and capsules hand-picked from this area. Capsules were broken up, seed and capsule material separated and weighed. Capsule moisture readings were taken with a moisture meter. Alkaloid yield data were calculated on Pesticide Research Manager (version 5 for Windows) using the formulae below. Briefly, capsule weight was adjusted for moisture to a dry weight, 5% of seed weight was added to this (this amount of capsule material regularly occurs in seed samples after processing) to give a capsule weight per plot. Seed weight was adjusted to 95% of crude weight. Straw weights were determined by multiplying dry capsule weight by 1.3 (estimated amount of stem material in a commercial harvest) and adjusted to 11% moisture. When Lontrel was applied to crops exact capsule and seed weight data were entered. Analyses of variance and a Multiple Range Test were performed on data using Pesticide Research Manager.
Trial to evaluate applications of metsulfuron-methyl (Compound 1), mesosulfuron-methyl (Compound 2) and triasulfuron (Compound 3), in a morphine crop. Treatment sprays were applied to crop at row cover and ground cover/early run-up, respectively. Plant heights were assessed 5 weeks after last application and lodging was assessed at capsule harvest.

[2] = system: poppy crops; assay: Example 17: field trial, triasulfuron, mesosulfuron-methyl and metsulfuron-methyl at early run-up and mid-late run-up, morphine crop; details: Trt 2: COMPOUND 1 120 MG/HA + PULSE .2% V/V at ERU and M-LRU
Protocol: as §1, §2, §3
Trial to evaluate applications of triasulfuron, mesosulfuron-methyl and metsulfuron-methyl, in a morphine crop. Treatment sprays were applied to with crop at early run-up and mid-late run-up, respectively. Plant heights were measured on 6 weeks after last application and lodging was assessed at capsule harvest.

[3] = system: poppy crops; assay: Example 13: field trial, metsulfuron-methyl, Lontrel and metsulfuron-methyl+Lontrel, morphine crop; details: Trt 3: COMPOUND 1 120 MG/HA + PULSE .2% V/V at RC, ERU and LRU
Protocol: as §1, §2
as §3, with “Manager. Significant differences (P=0.05) between treatments are denoted by different lower case letters adjacent to treatment means in the tables of results.” for “Manager.”
Trial to evaluate applications of metsulfuron-methyl (Compound 1), Lontrel and metsulfuron-methyl+Lontrel, in a morphine crop. Treatment sprays were applied to crop at row cover, early run-up and late run-up. Plant heights were measured at green capsule stage. Lodging was assessed at harvest.

[4] = system: poppy crops; assay: Example 9: field trial, mesosulfuron-methyl and metsulfuron-methyl, morphine crop; details: COMPOUND 1 120 MG/HA + PULSE .2 % V/V at GC, LRU and EBE
Protocol: as §1, §2, §3
Trial to evaluate applications of mesosulfuron-methyl (Compound 2) and metsulfuron-methyl (Compound 1), in a morphine crop. Treatment sprays were applied to crop at ground cover, late run-up and early bud-emergence, respectively. Plant heights were measured at green capsule stage, and lodging assessed on the day of capsule harvest.

[5] = system: poppy crops; assay: Example 3: field trial, metsulfuron-methyl alone or tank-mixed with Sunny at early-mid run-up, morphine crop; details: COMPOUND 1 120 MG/HA + PULSE .2 % V/V at E-MRU
Protocol: as §1, §2
as §3, with “Manager. Significant differences (P=0.05) between treatments are denoted by different lower case letters adjacent to treatment means in the tables of results.” for “Manager.”
Trial to evaluate metsulfuron-methyl (Compound 1) (120 mg/ha) applied alone, or tank-mixed with Sunny (1 L/ha=50 g/ha), in a morphine crop. Treatments were applied to crop at early-mid run-up, plant heights were measured at green capsule stage.

[6] = system: poppy crops; assay: Example 4: field trial, metsulfuron-methyl alone or tank-mixed with Sunny at early run-up, morphine crop; details: COMPOUND 1 120 MG/HA + PULSE .2 % v/v at ERU
Protocol: as §1, §2
as §3, with “Manager. Significant differences (P=0.05) between treatments are denoted by different lower case letters adjacent to treatment means in the tables of results.” for “Manager.”
Trial to evaluate metsulfuron-methyl (Compound 1) (120 mg/ha) alone, or tank-mixed with Sunny (1 L/ha), in a morphine crop. Treatments were applied to crop at early run-up, plant heights were measured at early green capsule stage.

[7] = measured at green capsule stage

Compound: COC(=O)c1ccccc1S(=O)(=O)NC(=O)Nc1nc(C)nc(OC)n1 [Compound 1, metsulfuron-methyl]
- CAPS/SEED RATIO [1]: 1.740 a
- CROP WEIGHT [1]: 2.46 c t/ha
- MORPHINE [1]: 37.76 bc kg/ha
- SEED [1]: 698 d kg/ha
- STRAW [1]: 1749 bc kg/ha
- STRAW MORPHINE [1]: 2.15 ab %
- PLANT HEIGHT ([1]; 5 weeks after last application): 90.0 c cm
- CAPS/SEED RATIO [2]: 8.976 a
- CROP WEIGHT [2]: 2.60 b t/ha
- MORPHINE [2]: 49.48 a kg/ha
- SEED [2]: 187 c kg/ha
- STRAW [2]: 2343 a kg/ha
- STRAW MORPHINE [2]: 2.11 c %
- PLANT HEIGHT ([2]; 6 weeks after last application): 97.0 c cm
- LODGING ([2]; at capsule harvest): 2.7 b %
- CAPS/SEED RATIO [3]: 3.431 a
- CROP WEIGHT [3]: 3.11 b t/ha
- MORPHINE [3]: 50.81 a kg/ha
- SEED [3]: 582 c kg/ha
- STRAW [3]: 2530 a kg/ha
- STRAW MORPHINE [3]: 2.01 a %
- LODGING ([3]; assessed at harvest): 2.2 b %
- HEIGHT ([3]; height at green capsule stage): 95.8 b cm
- CAPSULE/SEED RATIO [4]: 3.844 a
- CROP WEIGHT [4]: 2.67 b t/ha
- MORPHINE [4]: 43.94 a kg/ha
- SEED [4]: 468 b kg/ha
- STRAW [4]: 2206 a kg/ha
- STRAW MORPHINE [4]: 2.04 a %
- LODGING ([4]; assessed on the day of capsule harvest): 2.3 c %
- HEIGHT [4, 7]: 94.5 ab cm
- CAPSULE/SEED RATIO [5]: 0.984 ab
- CROP WEIGHT [5]: 1.52 ab t/ha
- MORPHINE [5]: 20.88 a kg/ha
- SEED [5]: 640 c kg/ha
- STRAW [5]: 884 ab kg/ha
- STRAW MORPHINE [5]: 2.36 a %
- PLANT HEIGHT [5, 7]: 101.0 a cm
- CAPSULE/SEED RATIO [6]: 0.978 a
- CROP WEIGHT [6]: 2.30 b t/ha
- MORPHINE [6]: 31.32 a kg/ha
- SEED [6]: 955 c kg/ha
- STRAW [6]: 1349 a kg/ha
- STRAW MORPHINE [6]: 2.32 a %
- PLANT HEIGHT ([6]; measured at early green capsule stage): 82.6 a cm
